Counter-ions that a name gives are not always drawn.
What was measured:
[1] = test system: TG3 immunoreactivity in OKA treated MSN1a cells; test: Inhibition of TG3 immunoreactivity in OKA treated MSN1a cells (ELISA); assay type: cell-based, human; details: TG3 antibody; for IC50: Homo sapiens, 1 μM OKA, 0-64 μM drug, 2 hrs at 37° C.
Description: This assay can thus be used to determine whether a drug is capable of preventing or intervening in AD by attenuating the production of abnormally phosphorylated paired helical filament epitopes associated with AD. To determine whether a drug is capable of preventing or intervening in AD activity, the MSN1a cells containing tau and associated proteins are treated with OKA capable of greatly increasing immunoreactivity of the MSN1a cells with AD specific monoclonal antibodies. Then, either prior to or concomitantly with OKA treatment, a compound of the present invention is added to the culture. If the compound prevents the induction of the AD epitopes in the MSN1a cells treated with OKA, then it is said to have anti-AD activity. If the AD-specific antibodies are highly reactive with the neuroblastoma cells following OKA treatment in the presence of compound, then the compound is said to be ineffectual against AD.
The MSN1a human neuroblastoma line was subcloned from a population of MSN cells obtained from the laboratory of Dr. Peter Davies (Albert Einstein College of Medicine, New York, N.Y.). Cells were grown and maintained in flasks in RPMI 1640 medium, supplemented with 15% fetal calf serum, 100 U/ml penicillin, 100 U/ml Streptomycin, 0.5 ug/ml fungizone under 7.5% CO2 at 37° C.
Stock solutions of drugs were prepared by dissolving the anhydrous powders to final concentrations of either 10 or 20 mM in 50% aqueous or 100% dimethyl sulfoxide (DMSO), respectively. Working solutions of drugs were prepared by dilution of the stock solutions with Kreb's Ringer in Hepes buffer (KRH) (128 mM NaCl, 5 mM KCl, 2.5 mM CaCl2 1.2 mM MgSO4, 1 mM Na2 HPO4, 10 mM dextrose, 20 mM Hepes, pH 7.4). OKA is maintained as a 1 mM stock solution in DMSO prior to dilution to 4 μM in KRH.
MSN cells grown in 225 cm^2 flasks are removed from the incubator, their medium decanted and replaced with 50 ml pre-warmed KRH. The cells are harvested by scraping prior to sedimentation at 1000 rpm for 5 min. The supernatants are discarded and the cell pellets are resuspended, the cells counted and diluted to a density of 2×10^4 cells/[…]. The cells are then plated in a 96 well plate at 50 μl/well and 25 μl of 4 μM OKA and 25 μl of drug are then added to the appropriate wells; the entire 96 well plate is then incubated for 2 hrs at 37° C. Depending on the dilution of drug added, this yields individual wells containing 1 μM OKA, 0-64 μM drug and 2×10^4 cells in 0.26% DMSO in KRH. The incubation is terminated by the addition of 20 μl of 6X extraction buffer and immediate freezing at -80° C. for at least one hr. The 6X extraction buffer contains: 25 mM Tris-HCl, pH 7.6, 150 mM NaCl, 5 mM EDTA, 24 mM δ-glycerol phosphate, 10 μg/ml APMSF (4-amidinophenylmethane-sulfonyl flouride), and 2.5 μg/ml each of leupeptin, aprotinin, and pepstatin. The plates are thawed in a 37° C. water bath and 20 μl of cell lysate is added to a replica well in an ELISA plate that already contains 80 μl of coating buffer (15 mM Na2 CO3 and 35 mM NaHCO3, pH 9.6). The plates are allowed to coat overnight at 4° C. The plates are washed four times with deionized water and then blocked for 30 min at 37° C. with 200 μl/well pre-warmed 1% bovine serum albumin in 10 mM Tris-HCl, pH 7.4, 150 mM NaCl, 3 mM NaN3 (BSA-TBS). After the blocking solution is removed, 100 μl/well of an appropriate dilution of pre-warmed primary antibody (eg., TG3 or PHF-1) in BSA-TBS is added and incubated at 37° C. for 30 min. Incubation is terminated by washing four times in deionized water at which time 100 μl of an appropriate dilution of pre-warmed secondary antibody (conjugated to alkaline phosphatase) in BSA-TBS is added to each well in the ELISA plate. Incubation is performed for 30 min at 37° C. followed by washing 4 times with deionized water. […] of prewarmed chromogenic substrate (1 mg/ml p-nitrophenyl phosphate in 10% diethanolamine, 3 mM NAN3, 0.5 mM MgCl2, pH 9.8) is added and the plate incubated for 30 min at 37° C. […]

[2] = test system: paired helical filament epitopes (PHF-1) in MSN1a cells; test: Western blot of PHF-1 immunoreactivity in MSN1a cells treated with okadaic acid; assay type: cell-based, human
Description: FIG. 3 is a western blot showing PHF-1 immunoreactivity in lysates from control and chlorpromazine treated MSN cells treated with okadaic acid.
These compounds are effective at micromolar concentrations, with increased potency being evident when cells are treated prior to the addition of okadaic acid. The effective concentrations appear to be in the range at which these drugs are present in the brain following chronic treatment of psychiatric patients (Svendsen, CN, Psychopharmacology, 90, 316-321, 1986).
To determine the effect of chlorpromazine on the paired helical filament epitopes associated with AD, MSN1a cells expressing paired helical filament epitopes were incubated with […] chlorpromazine (CPZ) or a 0.2% DMSO vehicle control for 2 hours at 37° C. The cells were isolated by centrifugation, boiled for 10 minutes and […] protein from the resulting heat stable supernatants were loaded per lane on an SDS-PAGE gel. The gel was electrophoretically transferred to nitrocellulose membrane and then immunostained with PHF-1. […] The use of the MSN1a cell culture model for screening of novel compounds for therapeutic activity in AD is, therefore, quite warranted.

[3] = test system: paired helical filament epitopes (TG3) in human brain tissue; test: Direct ELISA with TG3 antibody on post-mortem brain tissue of patients (second retrospective study); assay type: in vivo; details: chlorpromazine treated patients (Rx), N 51, summed absorbance
From the text: In a subsequent study, 51 additional patients were identified and the analysis was repeated as above using the TG3 antibody in an ELISA format. The results, summarized in Table 1, clearly reproduce and confirm the first retrospective study. Immunohistopathological studies carried out on several brain regions from these patients were consistent with these ELISA results. Taken together, these two studies provide evidence of the therapeutic benefit of chlorpromazine in AD and validate the use of the MSN1a model for the identification of therapeutically useful compounds for the treatment of AD.
*Signal is calculated by summing the means of duplicate absorbance
readings (direct ELISA using TG3 antibody) for 8 dilutions of all lysates
prepared by one to two serial dilutions.

[4] = test system: PHF epitope (ADAP) levels in human brain tissue; test: ALZ-EIA of PHF epitope (ADAP) levels in post-mortem brain tissue of chronically treated patients (first retrospective study); assay type: in vivo; details: chronically chlorpromazine treated patients (Rx), Brodman areas 10 and 38, ALZ-EIA
Description: FIG. 4A is a chart showing relative ADAP concentrations in Brodman Area 10 in Alzheimer's Disease patients, normal controls and patients treated with chloropromazine (Rx).
FIG. 4B is a chart showing relative ADAP concentrations in Brodman Area 38 in Alzheimer's Disease patients, normal controls and patients treated with chloropromazine (Rx).
Frontal and cortical brain tissue specimens obtained at autopsy from patients chronically treated with chlorpromazine were analyzed using the ALZ-EIA method previously described (Ghanbari, H A, et al, JAMA, 263, 2907, 1990). The results are shown in FIGS. 4A and 4B frontal (Broadman area 10) and temporal (Broadman area 38) regions, respectively. The brain tissue (post-mortem) from approximately the same number of (age matched) normal controls and Alzheimer's Disease patients were also analyzed and are presented in these figures as negative and positive controls (for normal and AD, respectively).

[5] = test system: PHF-1 and TG3 epitopes in MSN1a cells; test: Generation of Alzheimer brain specific epitopes in MSN1a cells; assay type: cell-based, human; details: epitopes absent or very low in untreated cells
Description: Conditions were established which led to hyperphosphorylation of the proteins known to be involved in PHF formation. Using monoclonal antibodies PHF-1 and TG3 generated to human PHF preparations, the effects of a variety of manipulations of the phosphorylation state of these proteins were tested. These tests required that most of the abnormal epitopes recognized by these monoclonal antibodies in the human Alzheimer brain should be generated in the MSN1a cells. […] These epitopes are either absent or present at a very low level in untreated MSN1a cells.
Shown in FIG. 2A are bar graphs (percent of AD) of the ELISA immunoreactivity of brain preparations (AD or normal) to either PHF-1 or TG3. Shown in FIG. 2B are bar graphs (percent of MSN+) of the ELISA immunoreactivity of MSN1 a cell preparations (minus or plus okadaic acid) to either PHF-1 or TG3. The MSN1a cell preparations plus vs minus okadaic acid closely parallel the AD vs normal brain preparations. […] The cell culture system according to the invention in which epitopes characteristic of PHF can be readily generated and subsequently recognized by the specific Alzheimer brain specific antibodies provides an assay suitable for screening compounds for their ability to block the production of these phosphorylated epitopes.

In the case of `CN(C)CCCN1c2ccccc2Sc2ccc(Cl)cc21` [Chlorpromazine, chlorpromazine], the IC50 [1] is reported as roughly 70 µM, the “inhibition of production of aberrant phosphorylated epitopes in the MSN1a cell culture model (in words)” value [1] is reported as “effective in inhibiting the production of these aberrant phosphorylated epitopes” and the “production of paired helical filament epitopes” value ([2]; 100 mM chlorpromazine, 2 hours at 37° C., PHF-1 immunostain) is reported as “greatly decreased the production of paired helical filament epitopes”. For the same compound, the “inhibition of expression of PHF epitopes upon treatment of MSN1a cells with okadaic acid” value ([2]; AD specific antibodies, FIG. 3) was “markedly inhibit the expression of PHF epitopes”, the “SIGNAL ± SEM, Temporal” value ([3]; Normal 0.00 ± 0.00, AD 17.55 ± 2.82) was 0.16 ± 0.11 and the “SIGNAL ± SEM, Frontal” value ([3]; Normal 0.12 ± 0.12, AD 16.54 ± 2.59) was 0.12 ± 0.11. For the same compound, the “PHF epitope levels in brain” value [4] was “low PHF epitope levels similar to normal controls”.
`CN1CCN(CCC(=O)c2ccccc2)CC1` [Example 1, 1-Phenyl-3-(4'-methyl-1'-piperazinyl)-1-propanone dihydrochloride] gave an IC50 [1] of 12.4 µM.
With `CCCN1CCN(CCC(=O)c2cccc(C)c2)CC1` [Example 5, 1-(m-Methylphenyl)-3-(4'-propyl-1'-piperazinyl)-1-propanone dihydrochloride] the IC50 [1] was 15.8 µM.
Compound `Cc1cccc(C(=O)CCN2CCOCC2)c1` [Example 9, 1-(m-Methylphenyl)-3-(4'-morpholinyl)-1-propanone hydrochloride] has an IC50 [1] of 5.4 µM.
`COc1ccccc1C(=O)CCN1CCOCC1` [Example 13, 1-(o-Methoxyphenyl)-3-(4'-morpholinyl)-1-propanone hydrochloride] showed an IC50 [1] of 9.1 µM.
`O=C(CCN1CCOCC1)c1cc(Cl)ccc1Cl` [Example 17, 1-(2",5"-Dichlorophenyl)-3-(4'-morpholinyl)-1-propanone hydrochloride] showed an IC50 [1] of 15.8 µM.
`CN1CCN(CCC(=O)c2ccccc2F)CC1` [Example 23, 1-(o-Fluorophenyl)-3-(4'-methyl-1'-piperazinyl)-1-propanone dihydrochloride] gave an IC50 [1] of 13.2 µM.
`CC1CN(CCC(=O)c2cccc([N+](=O)[O-])c2)CC(C)N1` (centres unmarked) [Example 26, 1-(m-Nitrophenyl)-3-(2',6'-dimethyl-4'-piperazinyl)-1-propanone dihydrochloride] was tested, and the IC50 [1] was 7.3 µM.
`O=C(CCN1CCOCC1)c1cccc([N+](=O)[O-])c1` [Example 30, 1-(m-Nitrophenyl)-3-(4'-morpholinyl)-1-propanone hydrochloride] was tested, and the IC50 [1] was 5.9 µM.
`CN(c1cccc(C(=O)CCN2CCOCC2)c1)S(C)(=O)=O` [Example 34, 1-[m-(N-Methyl-N-methylsulfonylamino)phenyl]-3-(4'-morpholinyl)-1-propanone hydrochloride] was tested, and the IC50 [1] was 7.5 µM.
In the case of `O=C(CCN1CCOCC1)c1cccc(Cl)c1` [Example 38, 1-(m-Chlorophenyl)-3-(4'-morpholinyl)-1-propanone hydrochloride], the IC50 [1] is reported as 5.8 µM.
Work on `O=C(CCN1CCOCC1)c1ccc(Br)cc1` [Example 42, 1-(p-Bromophenyl)-3-(4'-morpholinyl)-1-propanone hydrochloride] yielded an IC50 [1] of 6.4 µM.
With `CC1CN(CCC(=O)c2ccccc2)C(C)CN1CCC(=O)c1ccccc1` (centres unmarked) [Example 45, 1,4-Bis-(3'-Phenylpropane-3'-one-1'-yl)-2,5-dimethylpiperazine dihydrochloride] the IC50 [1] was 11.4 µM.
`C=C1[C@@H](O)[C@@H]2O[C@]3(CC[C@H](/C=C/[C@@H](C)[C@@H]4CC(C)=C[C@@]5(O[C@H](C[C@@](C)(O)C(=O)O)CC[C@H]5O)O4)O3)CC[C@H]2O[C@@H]1[C@@H](O)C[C@H](C)[C@H]1O[C@@]2(CCCCO2)CC[C@H]1C` [okadaic acid] was tested, and the “generation of the epitopes associated with Alzheimer brain specific monoclonal antibodies” value [5] was “found to generate the epitopes”.

From patent US5705501A, “Certain substituted 1-aryl-3-morpholinopropanones to treat Alzheimer's Disease” (priority 1994, dated 1998)
